Test results: US10450549B2, “Aryloxyphenoxypropionate tolerance in turfrgass species and use of AAD1 as a selectable marker” (Dow AgroSciences, LLC, priority 2004, dated 2019)

Experiments:
[1] = target: T1, AAD1 (v1) (Sphingobium herbicidovorans, UniProt Q8KSC8); assay: Colorimetric phenol detection assay of AAD1 (v1) activity (purified enzyme or E. coli extract); format: biochemical; details: for activity of AAD1 (v1) E. coli extract on substrate: 0.5 mM substrate, 4 μl extract; for activity of AAD1 (v1) E. coli extract on substrate / A510, AAD1 / A510, AAD1 (10x): 15 min; for A510, AAD1 / A510, AAD1 (10x): Table 3, substrate 1 mM; for A510, AAD1: 1 μg purified AAD1 (v1) per 0.16 ml assay; for A510, AAD1 (10x): 10 μg purified AAD1 (v1) per 0.16 ml assay
T1 construct: made in house; host or cells: E. coli BL-21 Star (DE3), plasmid pDAB3203
T1 sequence (Q8KSC8 whole entry): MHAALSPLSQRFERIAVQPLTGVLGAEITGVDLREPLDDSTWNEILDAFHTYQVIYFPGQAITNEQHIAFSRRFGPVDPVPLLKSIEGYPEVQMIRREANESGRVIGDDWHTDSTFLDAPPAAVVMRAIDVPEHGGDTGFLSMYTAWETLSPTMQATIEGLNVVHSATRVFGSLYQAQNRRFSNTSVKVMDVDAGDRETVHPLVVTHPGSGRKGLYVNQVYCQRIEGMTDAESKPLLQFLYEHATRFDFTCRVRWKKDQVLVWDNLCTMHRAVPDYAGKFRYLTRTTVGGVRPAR

[2] = system: PAT/Cry1F-transformed Arabidopsis; assay: T1 Arabidopsis spray test, % visual injury 2 WAT: PAT/Cry1F transformed control; format: in vivo, Arabidopsis thaliana
Source text: (§1) Random individual T1 plants selected for glufosinate resistance above were confirmed for expression of the PAT protein using a PAT ELISA kit (Part no. 7000045, Strategic Diagnostics, Inc., Newark, Del.) to non-destructively confirm fidelity of selection process (manufacturer's protocol). Plants were then randomly assigned to various rates of phenoxy herbicides (dichlorprop or 2,4-D). […] Elevated rates were applied in subsequent trials (50, 200, 800, or 3200 g ae/ha).
(§2) All auxin herbicide applications were made using the DeVilbiss sprayer as described above to apply 703 L/ha spray volume (0.4 ml solution/3-inch pot) or applied by track sprayer in a 187 L/ha spray volume. […] Dichlorprop used was technical grade (Sigma, St. Louis, Mo.) dissolved in DMSO and diluted in water (<1% DMSO final concentration). As herbicide rates increased beyond 800 g ae/ha, the pH of the spray solution became exceedingly acidic, burning the leaves of young, tender Arabidopsis plants and complicating evaluation of the primary effects of the herbicides. It became standard practice to apply these high rates of phenoxy herbicides in 200 mM Tris buffer (pH 9.0) to a final pH of ˜7-8.
(§3) Although Arabidopsis, being a dicot, is not an optimal system for testing ACCase-inhibiting AOPP grass herbicides, AAD1 (v3)-transformed T1 plants were subjected to elevated rates (400-1600 g ae/ha) of RS-haloxyfop acid (internally synthesized) that do cause growth abnormalities and death of wildtype Arabidopsis using the DeVilbiss sprayer as described above. Injury ratings were taken 7 and 14 days after treatment. Likewise, T1 individuals were treated with the pyridyloxyacetate auxin herbicide, fluroxypyr.
(§4) Table 16. […] Response is presented in terms of % visual injury 2 WAT. […] Since each T1 is an independent transformation event, one can expect significant variation of individual T1 responses within a given rate. An arithmetic mean and standard deviation is presented for each treatment. The range in individual response is also indicated in the last column for each rate and transformation. PAT/Cry1F-transformed Arabidopsis served as an auxin-sensitive transformed control. Wildtype Arabidopsis is untransformed.
(§5) Table 17. T1 Arabidopsis response to a range of dichlroprop rates applied postemergence. Response is presented in terms of % visual injury 2 WAT. […] Since each T1 is an independent transformation event, one can expect significant variation of individual T1 responses within a given rate. An arithmetic mean and standard deviation is presented for each treatment. The range in individual response is also indicated in the last column for each rate and transformation. PAT/Cry1F-transformed Arabidopsis served as an auxin-sensitive transformed control. Wildtype Arabidopsis is untransformed.
as §5, with “18.” for “17.”, “haloxyfop” for “dichlroprop”, “postemergence at artificially high rates attempting to show tolerance of the dicot Arabidopsis to the graminicide.” for “postemergence.”

[3] = system: Wildtype Arabidopsis; assay: T1 Arabidopsis spray test, % visual injury 2 WAT: wildtype control; format: in vivo, Arabidopsis thaliana; details: for % Injury Ave / individuals with 20-40% injury / individuals with <20% injury / individuals with >40% injury / % Injury Range: Wildtype, 2 WAT; for GR99 for Arabidopsis: postemergence spray
Source text: as §1, §2, §3, §4, §5
as §5, with “18.” for “17.”, “haloxyfop” for “dichlroprop”, “postemergence at artificially high rates attempting to show tolerance of the dicot Arabidopsis to the graminicide.” for “postemergence.”

[4] = PAT/Cry1F (transformed control), 50 g ae/ha
[5] = PAT/Cry1F (transformed control), 200 g ae/ha
[6] = PAT/Cry1F (transformed control), 800 g ae/ha

C[C@@H](Oc1ccc(Oc2cnc3cc(Cl)ccc3n2)cc1)C(=O)O [quizalofop]
activity relative to the dichlorprop rate ([1]; purified AAD1 (v1), 1 mM substrate): 76%

O=C(O)COc1ccc(Cl)cc1Cl [2,4-D, 2,4-dichlorophenoxyacetic acid]
% Injury Ave [2, 4]: 90.7%
individuals with 20-40% injury [2, 4]: 0
individuals with <20% injury [2, 4]: 0
individuals with >40% injury [2, 4]: 15
% Injury Ave [2, 5]: 97.2%
individuals with 20-40% injury [2, 5]: 0
individuals with <20% injury [2, 5]: 0
individuals with >40% injury [2, 5]: 15
% Injury Ave [2, 6]: 100.0%
individuals with 20-40% injury [2, 6]: 0
individuals with <20% injury [2, 6]: 0
individuals with >40% injury [2, 6]: 15
% Injury Ave ([3]; 50 g ae/ha): 90.0%
individuals with 20-40% injury ([3]; 50 g ae/ha): 0
individuals with <20% injury ([3]; 50 g ae/ha): 0
individuals with >40% injury ([3]; 50 g ae/ha): 15
% Injury Ave ([3]; 200 g ae/ha): 95.1%
individuals with 20-40% injury ([3]; 200 g ae/ha): 0
individuals with <20% injury ([3]; 200 g ae/ha): 0
individuals with >40% injury ([3]; 200 g ae/ha): 15
% Injury Ave ([3]; 800 g ae/ha): 100.0%
individuals with 20-40% injury ([3]; 800 g ae/ha): 0
individuals with <20% injury ([3]; 800 g ae/ha): 0
individuals with >40% injury ([3]; 800 g ae/ha): 15
GR99 for Arabidopsis [3]: about 50 g ae/ha
activity of AAD1 (v1) E. coli extract on substrate [1]: cleaved
Vmax (A510 units) ([1]; AAD1 (v1) (pDAB3203), MOPS pH 6.75): 0.11 A510 units
A510, AAD1 [1]: 0.034
A510, AAD1 (10x) [1]: 0.383
A510 ([1]; Table 8, 1 mM, 27 μg crude recombinant AAD1 (v1) extract from E. coli): 0.177
% 2,4-D ([1]; Table 8, relative to 2,4-D, crude AAD1 (v1) extract): 100%
apparent Vmax, AAD1 (v1) ([1]; partially purified enzyme): 0.11 A510 units
kcat ([1]; purified AAD1 (v1)): 0.045 s⁻¹
Vmax ± SE ([1]; purified AAD1 (v1), Michaelis-Menten fit): 0.57 ± 0.00 μmol min^−1 mg^−1 AAD1

CC(Oc1ccc(Cl)cc1Cl)C(=O)O (racemic) [(R,S)-dichlorprop, 2,4-dichlorophenoxypropionic acid]
% Injury Ave ([2]; PAT/Cry1F, 12.5 g ae/ha): 38.1%
% Injury Range ([2]; PAT/Cry1F, 12.5 g ae/ha): 20-95%
individuals with 20-40% injury ([2]; PAT/Cry1F, 12.5 g ae/ha): 6
individuals with <20% injury ([2]; PAT/Cry1F, 12.5 g ae/ha): 0
individuals with >40% injury ([2]; PAT/Cry1F, 12.5 g ae/ha): 2
% Injury Ave ([2]; PAT/Cry1F, 50 g ae/ha): 80.0%
% Injury Range ([2]; PAT/Cry1F, 50 g ae/ha): 50-100%
individuals with 20-40% injury ([2]; PAT/Cry1F, 50 g ae/ha): 0
individuals with <20% injury ([2]; PAT/Cry1F, 50 g ae/ha): 0
individuals with >40% injury ([2]; PAT/Cry1F, 50 g ae/ha): 8
% Injury Ave ([2]; PAT/Cry1F, 200 g ae/ha): 98.3%
% Injury Range ([2]; PAT/Cry1F, 200 g ae/ha): 95-100%
individuals with 20-40% injury ([2]; PAT/Cry1F, 200 g ae/ha): 0
individuals with <20% injury ([2]; PAT/Cry1F, 200 g ae/ha): 0
individuals with >40% injury ([2]; PAT/Cry1F, 200 g ae/ha): 8
% Injury Ave ([2]; PAT/Cry1F, 800 g ae/ha): 100.0%
% Injury Range ([2]; PAT/Cry1F, 800 g ae/ha): 100%
individuals with 20-40% injury ([2]; PAT/Cry1F, 800 g ae/ha): 0
individuals with <20% injury ([2]; PAT/Cry1F, 800 g ae/ha): 0
individuals with >40% injury ([2]; PAT/Cry1F, 800 g ae/ha): 8
% Injury Ave ([3]; 12.5 g ae/ha): 13.3%
% Injury Range ([3]; 12.5 g ae/ha): 10-15%
individuals with 20-40% injury ([3]; 12.5 g ae/ha): 0
individuals with <20% injury ([3]; 12.5 g ae/ha): 3
individuals with >40% injury ([3]; 12.5 g ae/ha): 0
% Injury Ave ([3]; 50 g ae/ha): 53.3%
% Injury Range ([3]; 50 g ae/ha): 50-60%
individuals with 20-40% injury ([3]; 50 g ae/ha): 0
individuals with <20% injury ([3]; 50 g ae/ha): 0
individuals with >40% injury ([3]; 50 g ae/ha): 3
% Injury Ave ([3]; 200 g ae/ha): 95.0%
% Injury Range ([3]; 200 g ae/ha): 90-100%
individuals with 20-40% injury ([3]; 200 g ae/ha): 0
individuals with <20% injury ([3]; 200 g ae/ha): 0
individuals with >40% injury ([3]; 200 g ae/ha): 3
% Injury Ave ([3]; 800 g ae/ha): 100.0%
% Injury Range ([3]; 800 g ae/ha): 100%
individuals with 20-40% injury ([3]; 800 g ae/ha): 0
individuals with <20% injury ([3]; 800 g ae/ha): 0
individuals with >40% injury ([3]; 800 g ae/ha): 3
GR99 for Arabidopsis [3]: ~200 g ae/ha
activity of AAD1 (v1) E. coli extract on substrate [1]: cleaved
A510, AAD1 [1]: 0.566
A510, AAD1 (10x) [1]: 2.594
